Legend:
[1] = test system: human colon adenocarcinoma cell lines (HCT-116); experiment: Determination of cell proliferation inhibition (Sulforodamine B); type: cell-based; settings: HCT-116, 48 hours treatment
Description: The inhibitory capacity of cell proliferation of the compounds was determined in two human colon adenocarcinoma cell lines (HCT-116) obtained at the ATCC (American Type Collection). The cells were seeded in 96-well plates and kept at 37° C. in a CO2 heater for 24 hours to allow cell-substrate-adhesion. Subsequently, cells were treated with the products under study at concentrations comprised between 1 and 100 μM for 48 hours. After the treatment period, the medium was removed and cells were dyed with Sulforodamine B. Finally, decolouration of the dyed cells was carried out with Tris base 10 mM and the plates were read at 493-530 nm in a plate reader. IC50 was calculated as the product concentration inducing a growth inhibition of the 50% compared with control cells not treated.

[2] = test system: human colon cancer cell lines HCT-116; experiment: Determination of apoptosis (DNA fragmentation into nucleosomes, Cell Death Detection ELISA PLUS); type: cell-based; settings: HCT-116, at 10 μM
Description: To stablish whether the antiproliferative activity of the compounds of the present invention is due to an apoptotic process, and not merely to a necrotic process, the generation of DNA fragments associated to histones (mono- and oligonucleosomes) was determined after incubation of the human colon cancer cell lines HCT-116 with the compounds of the present invention at different concentrations. DNA fragmentation into nucleosomes, which is an indicator of apoptosis phenomena, was quantified by a sandwich immunoassay using monoclonal antibodies directed against DNA and histones (Cell Death Detection ELISA^PLUS, Roche Diagnostics, cat #1920685). The quantity of fragmented DNA was expressed with the Enrichment Factor (EF) parameter, which is a coefficient of absorbance of nucleosomes liberated in the cytosol of the cells cultured in the presence of the products compared with control cells.

[3] = target: T1, COX-2 (Homo sapiens, UniProt P35354); experiment: COX-2 inhibition; type: biochemical
T1 sequence (P35354 18-604): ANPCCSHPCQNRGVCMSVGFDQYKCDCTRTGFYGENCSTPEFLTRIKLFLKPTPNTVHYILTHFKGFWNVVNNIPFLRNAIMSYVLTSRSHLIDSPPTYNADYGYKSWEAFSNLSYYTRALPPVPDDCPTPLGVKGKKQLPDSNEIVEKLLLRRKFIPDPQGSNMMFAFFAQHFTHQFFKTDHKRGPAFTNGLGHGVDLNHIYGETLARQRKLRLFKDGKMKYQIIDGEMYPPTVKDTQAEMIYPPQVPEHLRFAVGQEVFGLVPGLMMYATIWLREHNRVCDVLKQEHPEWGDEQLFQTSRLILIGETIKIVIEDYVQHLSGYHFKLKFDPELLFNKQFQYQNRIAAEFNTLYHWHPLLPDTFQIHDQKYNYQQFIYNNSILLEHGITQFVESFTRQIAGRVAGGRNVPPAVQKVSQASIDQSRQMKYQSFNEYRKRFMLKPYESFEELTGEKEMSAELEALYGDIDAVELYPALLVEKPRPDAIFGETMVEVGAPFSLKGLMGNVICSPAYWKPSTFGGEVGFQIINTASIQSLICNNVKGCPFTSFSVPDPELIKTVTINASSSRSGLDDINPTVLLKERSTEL

| IC50 [1] [µM] | IC50 [3] [µM] | Compound | EF (Apoptosis induction, Enrichment Factor) [2] |
| --- | --- | --- | --- |
| < 5 | > 25 | COc1ccc(-c2nc3ncccn3c2-c2ccc3c(c2)C(C)(C)CCS3)cc1 [Example 244, 3-(4,4-Dimethylthiochroman-6-yl)-2-(4-methoxyphenyl)imidazo[1,2-a]pyrimidine] | +++ (EF > 6) |
| < 5 | > 25 | Cc1ccc(-c2nc3ncccn3c2-c2ccc(SC(C)C)c(Cl)c2)cc1 [Example 153, 3-(3-Chloro-4-isopropylsulfanylphenyl)-2-p-tolylimidazo[1,2-a]pyrimidine] | +++ (EF > 6) |
| 5 to 25 | > 25 | CSc1ccc(-c2c(-c3ccc(F)cc3)nc3ncccn23)cc1Cl [Example 240, 3-(3-Chloro-4-methylsulfanylphenyl)-2-(4-fluorophenyl)imidazo[1,2-a]pyrimidine] | ++ (3 < EF < 6) |
| < 5 | > 25 | COc1ccc(-c2nc3ncccn3c2-c2ccc(SC)c(Cl)c2)cc1 [Example 124, 3-(3-Chloro-4-methylsulfanylphenyl)-2-(4-methoxyphenyl)imidazo[1,2-a]pyrimidine] | +++ (EF > 6) |
| 5 to 25 | – | COc1ccc(-c2nc3nc(C)ccn3c2-c2ccc(SC)c(Cl)c2)cc1 [Example 125, 3-(3-Chloro-4-methylsulfanylphenyl)-2-(4-methoxyphenyl)-7-methylimidazo[1,2-a]pyrimidine] | +++ (EF > 6) |
| < 5 | > 25 | COc1ccc(-c2nc3ncccn3c2-c2ccc(SC(C)C)cc2)cc1 [Example 151, 3-(4-Isopropylsulfanylphenyl)-2-(4-methoxyphenyl)imidazo[1,2-a]pyrimidine] | +++ (EF > 6) |
| > 25 | – | Cc1ccc(-c2cc(C(F)(F)F)nn2-c2ccc(S(N)(=O)=O)cc2)cc1 [Celecoxib, reference compound] | + (EF < 3) |
| < 5 | 5 to 25 | COc1ccc(-c2nc3ncccn3c2-c2ccc(SC)cc2)cc1 [Example 8, 2-(4-Methoxyphenyl)-3-(4-methylsulfanylphenyl)imidazo[1,2-a]pyrimidine] | +++ (EF > 6) |
| > 25 | > 25 | CC1=C(CC(=O)O)c2cc(F)ccc2/C1=C\c1ccc(S(C)(=O)=O)cc1 [Exisulind, reference compound] | + (EF < 3) |
| < 5 | > 25 | CCCSc1ccc(-c2c(-c3ccc(OC)cc3)nc3ncccn23)cc1Cl [Example 148, 3-(3-Chloro-4-propylsulfanylphenyl)-2-(4-methoxyphenyl)imidazo[1,2-a]pyrimidine] | +++ (EF > 6) |

More lines, now with the values behind:

| Compound | IC50 [1] [µM] | IC50 [3] [µM] | EF (Apoptosis induction, Enrichment Factor) [2] |
| --- | --- | --- | --- |
| CSc1ccc(-c2c(-c3ccc(Br)cc3)nc3ncccn23)cc1 [Example 13, 2-(4-Bromophenyl)-3-(4-methylsulfanylphenyl)imidazo[1,2-a]pyrimidine] | < 5 | > 25 | +++ (EF > 6) |
| CSc1ccc(-c2c(-c3cccc(C)c3)nc3ncccn23)cc1Br [Example 132, 3-(3-Bromo-4-methylsulfanylphenyl)-2-m-tolylimidazo[1,2-a]pyrimidine] | < 5 | > 25 | +++ (EF > 6) |
| CSc1ccc(-c2nc3ncccn3c2-c2ccc(SC)c(Cl)c2)cc1 [Example 86, 3-(3-Chloro-4-methylsulfanylphenyl)-2-(4-methylsulfanylphenyl)imidazo[1,2-a]pyrimidine] | < 5 | – | +++ (EF > 6) |
| COc1ccc(-c2nc3ncccn3c2-c2ccc(SC)c(C)c2)cc1 [Example 138, 2-(4-Methoxyphenyl)-3-(3-methyl-4-methylsulfanylphenyl)imidazo[1,2-a]pyrimidine] | < 5 | > 25 | +++ (EF > 6) |
| CSc1ccc(-c2c(-c3ccc(Cl)cc3)nc3ncccn23)cc1Cl [Example 238, 3-(3-Chloro-4-methylsulfanylphenyl)-2-(4-chlorophenyl)imidazo[1,2-a]pyrimidine] | < 5 | > 25 | +++ (EF > 6) |
| COc1ccc(-c2nc3ncccn3c2-c2ccc([S+](C)[O-])c(Cl)c2)cc1 (stereo not drawn) [Example 189, 3-(3-Chloro-4-methanesulfinylphenyl)-2-(4-methoxyphenyl)imidazo[1,2-a]pyrimidine] | 5 to 25 | > 25 | +++ (EF > 6) |
| CSc1ccc(-c2c(-c3ccc(Cl)cc3)nc3ncccn23)cc1Br [Example 136, 3-(3-Bromo-4-methylsulfanylphenyl)-2-(4-chlorophenyl)imidazo[1,2-a]pyrimidine] | < 5 | > 25 | +++ (EF > 6) |
| CSc1ccc(-c2nc3ncccn3c2-c2ccc(SC(C)C)c(Cl)c2)cc1 [Example 157, 3-(3-Chloro-4-isopropylsulfanylphenyl)-2-(4-methylsulfanylphenyl)imidazo[1,2-a]pyrimidine] | < 5 | > 25 | +++ (EF > 6) |
